Results reported in patent US10894051B2, “Method of treating metastatic cancer in a subject” (City University of Hong Kong, priority 2017, dated 2021).

What was measured:
cancer cell = test: colony formation from single cancer cell; type: cell-based; settings: 2 μM, 5 μM and 10 μM
Protocol: (§1) HeLa cells, A549 cells, CNE-1 cells and human liver cancer stem cells (hLCSCs) were incubated and treated with vacuolin-1 at different concentrations, namely 2 μM, 5 μM and 10 μM.

A549 cells = test: trans-well migration assay; type: cell-based; settings: 2 μM, 5 μM and 10 μM
Protocol: as §1

CNE-1 cells = test: trans-well migration assay; type: cell-based; settings: 2 μM, 5 μM and 10 μM
Protocol: as §1

HeLa cells = test: trans-well migration assay; type: cell-based; settings: 2 μM, 5 μM and 10 μM
Protocol: as §1

[1] = system: human liver cancer stem cells (hLCSCs); test: trans-well migration assay; type: cell-based; settings: 2 μM, 5 μM and 10 μM
Protocol: as §1

hLCSCs [2] = test: matrigel invasion assay; type: cell-based, human
Protocol: as §1

hLCSCs [3] = test: tumor sphere formation; type: cell-based, human
focal adhesion (FA) = test: FA disassembly after nocodazole release (Vinculin staining); type: cell-based
Protocol: (§2) Autophagy or endosomal trafficking contributes to the migration and invasion of tumor cells by changing the microtubule dynamics, or presentation of surface proteins, or secretion of extracellular matrix (ECM) proteins. Also, focal adhesion (FA) dynamics is a key process for cell migration. In this regard, the effects of vacuolin-1 on the spatio-temporal regulation of FA dynamics were assessed. Phospho-Y397 FAK immunoblot was used to assess the effects of vacuolin-1 on phosphorylation and dephosphorylation dynamics of FAK. Cells were also treated with nocodazole, followed by nocodazole removal and vacuolin-1 incubation, stained with antibodies against Vinculin and Phalloidiin for FA and stress fiber, respectively.
With reference to FIGS. 1E and 1F, cells were treated with nocodazole so as to depolymerize microtubules for inducing and stabilizing FA formation, showing by the puncta staining pattern of Vinculin (green colour), whereas removal of nocodazole led to microtubule regrowth resulting in decreasing the number of FA in a time-dependent manner until the reformation of FAs. […] Focal adhesion kinase (FAK) phosphorylation and dephosphorylation on Y397 is another readout of FA dynamics.

[4] = system: Focal adhesion kinase (FAK); test: phospho-Y397 FAK immunoblot; type: cell-based; settings: phosphor-Y397 FAK immunoblot
Protocol: as §2
Consistently, with reference to FIG. 1D, vacuolin-1 treatment of cells abolished phosphorylation and dephosphorylation dynamics of FAK as assessed by the phosphor-Y397 FAK immunoblot analysis.

cancer cells = test: cytotoxicity in vitro; type: cell-based
LCSCs = test: xenograft tumor-seeding of vacuolin-1 pretreated LCSCs; type: in vivo, nude mice; settings: for tumor incidence / tumor volume: pretreated 10 μM 48 hours, after 4 weeks
Protocol: Nude mice were divided into 4 control groups and 4 treatment groups, each group having 6 nude mice. With reference to FIG. 2A, LCSCs were pretreated with DMSO or 10 μM vacuolin-1 for 48 hours before injecting to nude mice via subcutaneous injection. After 4 weeks, the tumor incidence in mice was measured to determine whether the pretreatment of vacuolin-1 can inhibit the invasion cancer cells in mice.

tfLC3B-expressing LCSCs = test: metastasis of tail vein injected LCSCs; type: in vivo; settings: 2.5 mg/kg IP 3 times per week; 8 weeks; nude mice
Protocol: With reference to FIG. 3A, briefly, 5×10^5 tfLC3B-expressing LCSCs were injected via tail vein into nude mice. 24 hours after the tail vein injection, intraperitoneal (IP) injection of vacuolin-1 (2.5 mg/kg) were conducted 3 times per week. After 8 weeks, all mice were sacrificed. Lungs were excised, and fixed in the 4% paraformaldehyde in PBS. Metastatic nodules were counted in the excised lungs and hemotoxylin/eosin (H&E) were then performed.

[5] = system: human breast cancer cells CA1a; test: metastasis of tail vein injected CA1a cells; type: in vivo; settings: 2.5 mg/kg IP 3 times per week; 8 weeks; nude mice
Protocol: Similarly, the anti-metastasis effects of vacuolin-1 in human breast cancer cells CA1a in xenograft mouse models were evaluated. With reference to FIG. 4A, briefly, 5×10^5 Fluc-mCherry-expressing CA1a cells were injected by tail vein into nude mice. 24 hours after the tail vein injection, IP injections of vacuolin-1 (2.5 mg/kg) and DMSO-containing PBS were conducted 3 times per week. The mice where imaged by the Cri Maestro 2 weekly to assess the tumor progression. After 8 weeks, all mice were sacrificed.

[6] = system: mouse breast carcinoma 4TO7; test: metastasis of tail vein injected 4TO7 cells; type: in vivo, normal BALBc mice; settings: 2.5 mg/kg daily IP; BALBc mice
Protocol: To exclude the effects of immunodeficiency (nude mice) on the drug effects, another metastasis tumor model was established by tail vein injection of mouse breast carcinoma 4TO7 into normal BALBc mice followed by daily IP injections of vacuolin-1 (2.5 mg/kg) 24 hour later, as illustrated in FIG. 5A.

[7] = system: Fluc-mCherry-expressing 4TO7 cells; test: metastasis of tail vein injected Fluc-mCherry 4TO7 cells; type: in vivo; settings: tail vein injection; 2.5 mg/kg IP; 2 weeks; normal mice
Protocol: Since 4TO7 cells are more metastatic than LCSCs, Fluc-mCherry-expressing 4TO7 cells were injected into normal mice via tail vein injection followed by IP injections of vacuolin-1 (2.5 mg/kg) 24 hour later, as illustrated in FIG. 6A. The mice were imaged by the Cri Maestro 2 weekly to assess the tumor progression. Mice were sacrificed after 2 weeks, and the number of tumor colonies in lung was counted.

[8] = system: Fluc-mCherry-expressing 4TO7 cells; test: metastasis of fat pad injected Fluc-mCherry 4TO7 cells; type: in vivo; settings: fat pad injection; 2.5 mg/kg IP; 4 weeks; normal female mice
Protocol: The anti-metastasis effects of vacuolin-1 in another metastasis model have also been evaluated. With reference to FIG. 7A, Fluc-mCherry-expressing 4TO7 cells were injected into the fat pad of normal female mice followed by IP injections of vacuolin-1 (2.5 mg/kg) 24 hour later. The mice were imaged by the Cri Maestro 2 weekly to assess the tumor progression. Mice were sacrificed after 4 weeks, and the number of tumor colonies in lung was counted.

[9] = acute toxicity via oral route; type: in vivo; settings: single dose 250 mg/kg oral
Protocol: In particular, vacuolin-1 was administered at a single dose of 250 mg/kg to young adult male and female mice via oral route, and DMSO-containing PBS was administered to another set of male and female mice via oral route as a control group. […] During the 2 weeks, the body weight was also measured. After the 2 weeks, organs were excised for histopathology evaluation.
Referring to FIG. 8B, all tissues or organs in vacuolin-1 treated mice were normal in histological point of view as compared to control groups.

sub-chronic toxicity = type: in vivo; settings: 5 mg/kg daily intraperitoneal; 3 months; mice
Protocol: As for the sub-chronic toxicity of vacuolin-1, 5 mg/kg vacuolin-1 was administered daily to young adult male and female mice via intraperitoneal route for 3 months, and DMSO-containing PBS was administered to another set of male and female mice as a control group. The body weight of the mice was determined every week. […] After the 3 months, organs were excised for histopathology evaluation.

[10] = 1*10^4 LCSCs injected subcutaneously
[11] = 1*10^5 LCSCs injected subcutaneously
[12] = 1*10^6 LCSCs injected subcutaneously

**Q.** For Ic1cccc(/C=N/Nc2nc(N3CCOCC3)nc(N(c3ccccc3)c3ccccc3)n2)c1 [vacuolin-1], which “size and number of colonies generated from single cancer cell” value (cancer cell) is on record?
**A.** The value was “dramatically reduced”.

**Q.** What about the cell migration (A549 cells) of the same molecule?
**A.** The cell migration was “significantly inhibited”.

**Q.** What about the cell migration (CNE-1 cells) of the same molecule?
**A.** Its cell migration is “significantly inhibited”.

**Q.** And the cell migration (HeLa cells)?
**A.** Its cell migration is “significantly inhibited”.

**Q.** And the cell migration [1]?
**A.** Its cell migration is “significantly inhibited”.

**Q.** What about the cell invasion (hLCSCs [2]) of the same molecule?
**A.** The cell invasion was “significantly inhibited”.

**Q.** What about the tumor sphere formation (hLCSCs [3]) of the same molecule?
**A.** Its tumor sphere formation is “significantly inhibited”.

**Q.** And the FA disassembly (focal adhesion (FA))?
**A.** The FA disassembly was “markedly inhibited”.

**Q.** And the “phosphorylation and dephosphorylation dynamics of FAK” value [4]?
**A.** Its value is “abolished”.

**Q.** What about the cytotoxicity (cancer cells) of the same molecule?
**A.** The cytotoxicity was “no cytotoxicity”.

**Q.** What about the tumor incidence (LCSCs; 1*10^3 LCSCs injected subcutaneously) of the same molecule?
**A.** Its tumor incidence is 0/6.

**Q.** What about the tumor incidence (LCSCs; [10]) of the same molecule?
**A.** The tumor incidence was 2/6.

**Q.** What about the tumor volume (LCSCs; [10]) of the same molecule?
**A.** The tumor volume was “(1069 mm^3)”.

**Q.** What about the tumor incidence (LCSCs; [11]) of the same molecule?
**A.** The tumor incidence was 2/6.

**Q.** And the tumor volume (LCSCs; [11])?
**A.** The tumor volume was “(1184 mm^3)”.

**Q.** What about the tumor incidence (LCSCs; [12]) of the same molecule?
**A.** Its tumor incidence is 5/6.

**Q.** What about the tumor volume (LCSCs; [12]) of the same molecule?
**A.** The tumor volume was “(1521 mm^3)”.

**Q.** What about the “tumor-seeding ability of LCSC cells” value (LCSCs; vacuolin-1 pretreatment, nude mice) of the same molecule?
**A.** The value was “markedly inhibited”.

**Q.** What about the “metastasis of LCSCs (tumor nodules in lung, lung histology)” value (tfLC3B-expressing LCSCs) of the same molecule?
**A.** Its value is “significantly inhibited”.

**Q.** What about the “metastasis of CA1a cells” value [5] of the same molecule?
**A.** Its value is “significantly inhibited”.

**Q.** What about the “anti-metastatic effects on 4TO7 cells (tumor nodules in lungs, lung histology)” value [6] of the same molecule?
**A.** Its value is “striking anti-metastatic effects”.

**Q.** What about the “metastasis of 4TO7 cells” value [7] of the same molecule?
**A.** Its value is “markedly inhibited”.

**Q.** And the “metastasis of 4TO7 cells” value [8]?
**A.** The value was “markedly inhibited”.

**Q.** And the behavior abnormality ([9]; 2 weeks)?
**A.** The behavior abnormality was “no signs of behavior abnormality”.

**Q.** And the mouse weight gain ([9]; 2 weeks)?
**A.** The mouse weight gain was “no effects”.

**Q.** What about the “histology of tissues or organs” value ([9]; after 2 weeks) of the same molecule?
**A.** The value was “normal”.

**Q.** What about the acute toxicity ([9]; mice) of the same molecule?
**A.** The acute toxicity was “no acute toxicity”.

**Q.** And the sub-chronic toxicity (sub-chronic toxicity)?
**A.** Its sub-chronic toxicity is “no sub-chronic toxicity”.
